Assay results published in the NIST ThermoML archive (doi:10.1021/acs.jced.8b00132).
Several values for one entry are separate records, joined by “and”; a condition that tells them apart may be missing. Identical values can stand only once. ± gives the expanded uncertainty stated by the source.

## O=C(C(F)(F)C(F)(F)F)C(F)(C(F)(F)F)C(F)(F)F [dodecafluoro-2-methylpentan-3-one]
330 K, 67724 kPa, Liquid, transient hot wire
  thermal conductivity: 0.07584 ± 0.0016 W/m/K
330.01 K, 117 kPa, Gas, hot wire
  thermal conductivity: 0.01411 ± 0.00069 W/m/K
330.01 K, 14125 kPa, Liquid, transient hot wire
  thermal conductivity: 0.05895 ± 0.0012 W/m/K
330.01 K, 14129 kPa, Liquid, transient hot wire
  thermal conductivity: 0.05898 ± 0.0012 W/m/K
330.02 K, 117 kPa, Gas, hot wire
  thermal conductivity: 0.01412 ± 0.00069 W/m/K
330.02 K, 36718 kPa, Liquid, transient hot wire
  thermal conductivity: 0.0672 ± 0.0014 W/m/K
330.02 K, 36720 kPa, Liquid, transient hot wire
  thermal conductivity: 0.06721 ± 0.0014 W/m/K
330.06 K, 57396 kPa, Liquid, transient hot wire
  thermal conductivity: 0.07315 ± 0.0015 W/m/K
330.06 K, 57404 kPa, Liquid, transient hot wire
  thermal conductivity: 0.07318 ± 0.0015 W/m/K
330.09 K, 27942 kPa, Liquid, transient hot wire
  thermal conductivity: 0.06426 ± 0.0013 W/m/K
330.09 K, 27945 kPa, Liquid, transient hot wire
  thermal conductivity: 0.06429 ± 0.0013 W/m/K
330.1 K, 8617 kPa, Liquid, transient hot wire
  thermal conductivity: 0.05649 ± 0.0012 W/m/K
330.1 K, 8619 kPa, Liquid, transient hot wire
  thermal conductivity: 0.0565 ± 0.0012 W/m/K
330.14 K, 4470 kPa, Liquid, transient hot wire
  thermal conductivity: 0.05444 ± 0.0011 W/m/K
330.14 K, 46576 kPa, Liquid, transient hot wire
  thermal conductivity: 0.07022 ± 0.0014 W/m/K
330.14 K, 46583 kPa, Liquid, transient hot wire
  thermal conductivity: 0.07015 ± 0.0014 W/m/K
330.15 K, 4473 kPa, Liquid, transient hot wire
  thermal conductivity: 0.05441 ± 0.0011 W/m/K
330.16 K, 20517 kPa, Liquid, transient hot wire
  thermal conductivity: 0.06186 ± 0.0013 W/m/K
330.16 K, 20518 kPa, Liquid, transient hot wire
  thermal conductivity: 0.06149 ± 0.0013 W/m/K
330.19 K, 67678 kPa, Liquid, transient hot wire
  thermal conductivity: 0.07583 ± 0.0016 W/m/K
330.2 K, 67695 kPa, Liquid, transient hot wire
  thermal conductivity: 0.07583 ± 0.0016 W/m/K
330.21 K, 178 kPa, Liquid, transient hot wire
  thermal conductivity: 0.05173 ± 0.0011 W/m/K
330.22 K, 178 kPa, Liquid, transient hot wire
  thermal conductivity: 0.05205 ± 0.0011 W/m/K
330.23 K, 180 kPa, Liquid, transient hot wire
  thermal conductivity: 0.05206 ± 0.0011 W/m/K
330.23 K, 36712 kPa, Liquid, transient hot wire
  thermal conductivity: 0.06716 ± 0.0014 W/m/K
330.23 K, 36715 kPa, Liquid, transient hot wire
  thermal conductivity: 0.06712 ± 0.0014 W/m/K
330.24 K, 180 kPa, Liquid, transient hot wire
  thermal conductivity: 0.05202 ± 0.0011 W/m/K
330.24 K, 14124 kPa, Liquid, transient hot wire
  thermal conductivity: 0.05892 ± 0.0012 W/m/K
330.24 K, 14130 kPa, Liquid, transient hot wire
  thermal conductivity: 0.05892 ± 0.0012 W/m/K
330.26 K, 57370 kPa, Liquid, transient hot wire
  thermal conductivity: 0.07313 ± 0.0015 W/m/K
330.26 K, 57385 kPa, Liquid, transient hot wire
  thermal conductivity: 0.07314 ± 0.0015 W/m/K
330.31 K, 27940 kPa, Liquid, transient hot wire
  thermal conductivity: 0.06422 ± 0.0013 W/m/K
330.31 K, 27943 kPa, Liquid, transient hot wire
  thermal conductivity: 0.06422 ± 0.0013 W/m/K
330.33 K, 8610 kPa, Liquid, transient hot wire
  thermal conductivity: 0.05657 ± 0.0012 W/m/K
330.33 K, 8620 kPa, Liquid, transient hot wire
  thermal conductivity: 0.05647 ± 0.0012 W/m/K
330.35 K, 46566 kPa, Liquid, transient hot wire
  thermal conductivity: 0.07011 ± 0.0014 W/m/K
330.35 K, 46569 kPa, Liquid, transient hot wire
  thermal conductivity: 0.07013 ± 0.0014 W/m/K
330.38 K, 4468 kPa, Liquid, transient hot wire
  thermal conductivity: 0.05439 ± 0.0011 W/m/K
330.39 K, 4469 kPa, Liquid, transient hot wire
  thermal conductivity: 0.0544 ± 0.0011 W/m/K
330.39 K, 20517 kPa, Liquid, transient hot wire
  thermal conductivity: 0.06147 ± 0.0013 W/m/K
330.4 K, 20518 kPa, Liquid, transient hot wire
  thermal conductivity: 0.06147 ± 0.0013 W/m/K
330.45 K, 36702 kPa, Liquid, transient hot wire
  thermal conductivity: 0.06713 ± 0.0014 W/m/K
330.45 K, 36716 kPa, Liquid, transient hot wire
  thermal conductivity: 0.06714 ± 0.0014 W/m/K
330.46 K, 179 kPa, Liquid, transient hot wire
  thermal conductivity: 0.052 ± 0.0011 W/m/K
330.47 K, 179 kPa, Liquid, transient hot wire
  thermal conductivity: 0.05202 ± 0.0011 W/m/K
330.48 K, 180 kPa, Liquid, transient hot wire
  thermal conductivity: 0.05201 ± 0.0011 W/m/K
330.48 K, 181 kPa, Liquid, transient hot wire
  thermal conductivity: 0.052 ± 0.0011 W/m/K
330.48 K, 14128 kPa, Liquid, transient hot wire
  thermal conductivity: 0.05889 ± 0.0012 W/m/K
330.48 K, 14134 kPa, Liquid, transient hot wire
  thermal conductivity: 0.05891 ± 0.0012 W/m/K
330.53 K, 27942 kPa, Liquid, transient hot wire
  thermal conductivity: 0.0642 ± 0.0013 W/m/K
330.54 K, 27944 kPa, Liquid, transient hot wire
  thermal conductivity: 0.06418 ± 0.0013 W/m/K
330.58 K, 8615 kPa, Liquid, transient hot wire
  thermal conductivity: 0.0564 ± 0.0012 W/m/K
330.58 K, 8617 kPa, Liquid, transient hot wire
  thermal conductivity: 0.05641 ± 0.0012 W/m/K
330.63 K, 4467 kPa, Liquid, transient hot wire
  thermal conductivity: 0.05435 ± 0.0011 W/m/K
330.63 K, 20513 kPa, Liquid, transient hot wire
  thermal conductivity: 0.06146 ± 0.0013 W/m/K
330.64 K, 4463 kPa, Liquid, transient hot wire
  thermal conductivity: 0.05433 ± 0.0011 W/m/K
330.64 K, 20514 kPa, Liquid, transient hot wire
  thermal conductivity: 0.06146 ± 0.0013 W/m/K
330.73 K, 179 kPa, Liquid, transient hot wire
  thermal conductivity: 0.05196 ± 0.0011 W/m/K and 0.05197 ± 0.0011 W/m/K
330.73 K, 181 kPa, Liquid, transient hot wire
  thermal conductivity: 0.05196 ± 0.0011 W/m/K and 0.05215 ± 0.0011 W/m/K
330.73 K, 14130 kPa, Liquid, transient hot wire
  thermal conductivity: 0.05885 ± 0.0012 W/m/K
330.74 K, 14134 kPa, Liquid, transient hot wire
  thermal conductivity: 0.0589 ± 0.0012 W/m/K
330.84 K, 8608 kPa, Liquid, transient hot wire
  thermal conductivity: 0.05637 ± 0.0012 W/m/K
330.84 K, 8609 kPa, Liquid, transient hot wire
  thermal conductivity: 0.05639 ± 0.0012 W/m/K
330.91 K, 4465 kPa, Liquid, transient hot wire
  thermal conductivity: 0.05432 ± 0.0011 W/m/K and 0.0543 ± 0.0011 W/m/K
331.01 K, 179 kPa, Liquid, transient hot wire
  thermal conductivity: 0.05176 ± 0.0011 W/m/K and 0.05194 ± 0.0011 W/m/K
331.01 K, 180 kPa, Liquid, transient hot wire
  thermal conductivity: 0.05194 ± 0.0011 W/m/K
331.01 K, 181 kPa, Liquid, transient hot wire
  thermal conductivity: 0.05193 ± 0.0011 W/m/K
331.09 K, 3942 kPa, Liquid, transient hot wire
  thermal conductivity: 0.05385 ± 0.0011 W/m/K
331.1 K, 3945 kPa, Liquid, transient hot wire
  thermal conductivity: 0.05411 ± 0.0011 W/m/K
331.21 K, 28078 kPa, Liquid, transient hot wire
  thermal conductivity: 0.06464 ± 0.0013 W/m/K
331.22 K, 20447 kPa, Liquid, transient hot wire
  thermal conductivity: 0.06133 ± 0.0013 W/m/K
331.22 K, 28080 kPa, Liquid, transient hot wire
  thermal conductivity: 0.06416 ± 0.0013 W/m/K
331.23 K, 20449 kPa, Liquid, transient hot wire
  thermal conductivity: 0.06095 ± 0.0013 W/m/K
331.24 K, 14112 kPa, Liquid, transient hot wire
  thermal conductivity: 0.05849 ± 0.0012 W/m/K
331.25 K, 14113 kPa, Liquid, transient hot wire
  thermal conductivity: 0.05865 ± 0.0012 W/m/K
331.28 K, 8580 kPa, Liquid, transient hot wire
  thermal conductivity: 0.05626 ± 0.0012 W/m/K
331.28 K, 8582 kPa, Liquid, transient hot wire
  thermal conductivity: 0.05648 ± 0.0012 W/m/K
331.31 K, 242 kPa, Liquid, transient hot wire
  thermal conductivity: 0.05138 ± 0.0011 W/m/K and 0.05151 ± 0.0011 W/m/K
331.36 K, 73 kPa, Liquid, transient hot wire
  thermal conductivity: 0.05184 ± 0.0011 W/m/K
331.36 K, 69235 kPa, Liquid, transient hot wire
  thermal conductivity: 0.07553 ± 0.0015 W/m/K
331.36 K, 69237 kPa, Liquid, transient hot wire
  thermal conductivity: 0.07531 ± 0.0015 W/m/K
331.37 K, 107 kPa, Liquid, transient hot wire
  thermal conductivity: 0.05182 ± 0.0011 W/m/K
331.37 K, 57734 kPa, Liquid, transient hot wire
  thermal conductivity: 0.07228 ± 0.0015 W/m/K
331.37 K, 57739 kPa, Liquid, transient hot wire
  thermal conductivity: 0.07238 ± 0.0015 W/m/K
